The values that follow come from ChEMBL document CHEMBL6078727 (Bioorg Med Chem, 2025).

The nature of series [1]: (§1) Induction of mitochondrial uncoupling activity in rat L6 myoblast cells assessed as increase in oxygen consumption rate by measuring ratio of integrated area under OCR dose curve above baseline relative to BAM15 up to 200 uM over 90 mins. Type of series: functional.
The nature of series [2]: Induction of mitochondrial uncoupling activity in rat L6 myoblast cells assessed as increase in oxygen consumption rate measured over 90 mins. In kind it is functional, cell-based.
A short description of series [3]: Cmax in C57BL/6J mouse at 10 mg/kg, po administrated via oral gavage by LC-MS/MS analysis. In kind it is ADME, organism-based. To be noted: in vivo.
Series [4] is described as follows: Half-life in male C57BL/6J mouse plasma at 10 mg/kg, po administrated via oral gavage by LC-MS/MS analysis. In kind it is ADME, organism-based. The settings on record: in vivo.
Series [5] relates to L6. Described as §1. In kind it is functional.

Active and inactive are the calls of the source. The rule behind the calls is not given here. Where only a bound is given, the exact number is not on record here.

A word on the EC50: it is the concentration that produces a half-maximal response. Take `O=C(NNc1nc2nonc2nc1Nc1ccccc1F)c1ccc(OC(F)(F)F)cc1`: in series [1], the Activity turned out to be 6%. In series [2], the EC50 is 4300 nM.

Usually Cmax stands for the peak of the concentration-time curve. Regarding `O=C(ONc1nc2nonc2nc1Nc1ccccc1F)c1ccc(OC(F)(F)F)cc1`, in series [3] (C57BL/6J), the highest concentration (Cmax) came out at 2 nM. Also, the Activity in series [1] is on record as 118%. Moreover, the EC50 in series [2] turned out to be 340 nM. In addition, the t1/2 in series [4] is recorded as 15 min.

Take `CC(C)COC(=O)NNc1nc2nonc2nc1Nc1ccccc1F`: in series [3] (po, 10 mg/kg), the Cmax came out at 6600 nM. Further, in series [1], the Activity turned out to be 88%. Further, the EC50 in series [2] was 1100 nM. The compound further gave a t1/2 in series [4] of 35.4 min.

For the compound `CC(C)(C)OC(=O)NNc1nc2nonc2nc1Nc1cccc(Cl)c1`, the Activity in series [1] is on record as 78%. Besides, the EC50 in series [2] is 1600 nM.

Regarding `CN(Nc1nc2nonc2nc1Nc1ccccc1F)C(=O)OC(C)(C)C`, the Activity in series [1] is reported as 65%. Also, the concentration giving a half-maximal response (EC50) in series [2] came to 8400 nM.

Consider `CC(C)(C)C(=O)ONc1nc2nonc2nc1Nc1ccccc1F`, for which the Activity in series [1] is recorded as 86%. The 50% effective concentration (EC50) in series [2] worked out at 5200 nM.

Take `CCCCOC(=O)NNc1nc2nonc2nc1Nc1ccccc1F`: the Activity in series [1] came to 54%. The EC50 in series [2] is 1200 nM.

In series [3] (po, 10 mg/kg), `CC(C)(C)OC(=O)NNc1nc2nonc2nc1Nc1ccccc1F` returned a Cmax of 220 nM. Moreover, the Activity in series [1] came to 103%. For the same compound, the EC50 in series [2] worked out at 4600 nM. In addition, the t1/2 in series [4] is given as 27 min.

`ONc1nc2nonc2nc1Nc1ccccc1F`: in series [1], the Activity was 41%. For the same compound, the EC50 in series [2] was 87600 nM.

With `O=C(ONc1nc2nonc2nc1Nc1ccccc1F)c1cccc(C(F)(F)F)c1`, the Activity in series [1] is reported as 71%. Also, the concentration for a half-maximal effect (EC50) in series [2] was 1580 nM.

Take `CCCC(=O)NNc1nc2nonc2nc1Nc1ccccc1F`: the Activity in series [1] worked out at 31%. The EC50 in series [2] was above 100000 nM.

For `O=C(ONc1nc2nonc2nc1Nc1ccccc1F)c1ccccc1C(F)(F)F`, the Activity in series [1] is 65%. Further, in series [2], the EC50 stood at 6560 nM.

Consider `O=C(NNc1nc2nonc2nc1Nc1ccccc1F)c1cccc(F)c1`, for which, in series [1], the Activity was 8%.

For the compound `CC(C)(C)OC(=O)NNc1nc2nonc2nc1Nc1ccccc1Cl`, in series [3] (po, 10 mg/kg), the peak level (Cmax) was 170 nM. In series [1], the Activity came to 87%. The half-maximal effective concentration (EC50) in series [2] was 4600 nM. The compound further displayed a t1/2 in series [4] of 108 min.

As to `O=C(ONc1nc2nonc2nc1Nc1ccccc1F)c1ccc(F)cc1F`, the Activity in series [1] was 97%. Besides, the half-maximal effective concentration (EC50) in series [2] came to 1360 nM.

As for `CCCCC(=O)NNc1nc2nonc2nc1Nc1ccccc1F`, the Activity in series [1] turned out to be 71%. Also, the half-maximal effective concentration (EC50) in series [2] is 14200 nM.

As for `O=C(ONc1nc2nonc2nc1Nc1ccccc1F)c1cc(C(F)(F)F)ccc1F`, in series [1], the Activity is reported as 75%. Also, the EC50 in series [2] turned out to be 1400 nM.

`O=C(ONc1nc2nonc2nc1Nc1ccccc1F)c1ccccc1F`: the Activity in series [1] is on record as 45%. In addition, in series [2], the 50% effective concentration (EC50) is above 100000 nM.

With `NNc1nc2nonc2nc1Nc1ccccc1F`, the result in series [5] was inactive.

With `CC(C)(C)OC(=O)NNc1nc2nonc2nc1Nc1cccc(F)c1`, the Activity in series [1] is given as 32%. Further, in series [2], the concentration giving a half-maximal response (EC50) was found to be 1100 nM.

For the compound `Cc1cc(C)cc(C(=O)ONc2nc3nonc3nc2Nc2ccccc2F)c1`, in series [1], the Activity amounted to 9%. Further, in series [2], the EC50 was 1490 nM.

With `CNNc1nc2nonc2nc1Nc1ccccc1F`, the Activity in series [1] was found to be 15%. Further, in series [2], the EC50 stood at 77000 nM.

Regarding `Cc1ccc(Nc2nc3nonc3nc2NO)cc1`, the result in series [5] was inactive.

`O=C(ONc1nc2nonc2nc1Nc1ccccc1F)c1cccc(F)c1`: in series [1], the Activity is on record as 102%. Also, the concentration for a half-maximal effect (EC50) in series [2] came out at 710 nM.

Consider `ONc1nc2nonc2nc1Nc1ccc(-c2ccc(F)cc2)cc1`, for which the outcome in series [5] was inactive.

`CCOC(=O)NNc1nc2nonc2nc1Nc1ccccc1F`: in series [1], the Activity is listed as 65%. In addition, the concentration giving a half-maximal response (EC50) in series [2] came to 16300 nM.

Consider `O=C(NNc1nc2nonc2nc1Nc1ccccc1F)NC1CCCC1`, for which the Activity in series [1] was 23%. Also, the EC50 in series [2] came out at 1100 nM.

For the compound `ONc1nc2nonc2nc1Nc1cc(F)cc(F)c1`, the result in series [5] was inactive.
